From patent US20260191850A1, “USE OF 8-HYDROXYQUINOLINE DERIVATIVE” (Jiangsu Yahong Meditech Co., Ltd., priority 2022, published 2026)
pEC50: −log10 of the molar value. “And” between values parts separate entries of the source, which are not always exact repeats. Identical values can stand only once. Counter-ions that a name gives are not always drawn. Like-named read-outs stand apart in the source and are kept apart here.

How the values were obtained:
[1] = test system: C-33A cells (ATCC HTB-31); assay: in vitro
Protocol: (§1) The antiviral activity of 7-nitro-8-hydroxyquinoline derivatives against human papillomavirus (HPV) was tested and evaluated using transient transfection assays. This evaluation system included plasmids expressing viral helicase E1 and replication origin binding protein E2, plasmids containing NanoLuc gene of which the expression was driven by a TK promoter (Promega company), and replication origin sequences of human papillomavirus strains listed below. […] The positions of replication origin sequences of the three NanoLuc reporter plasmids were 7825-7993:1-99, 7662-7901:1-99, and 7740-7837:1-102 for HPV-11 (NCBI Accession No. HE611260.1), HPV-16 (NCBI Accession No. KP212151.1), and HPV-18 (NCBI Accession No. KC470230.1), respectively. The positions of E1 open reading frame (ORF) sequences corresponding to HPV-11, HPV-16 and HPV-18 were 832-2781, 864-2813 and 914-2887 in the same sequences, respectively. The positions of E2 open reading frame (ORF) sequences corresponding to HPV-11, HPV-16 and HPV-18 were 2723-3826, 2755-3852 and 2817-3908 in the same sequences, respectively. The cells used for transient transfection were C-33A cells (ATCC HTB-31), and the culture medium was DMEM supplemented with Earle's salt, L-glutamine and 2% fetal bovine serum. In the experiment, the NanoLuc expression plasmid (5 ng/well) was co-transfected with the E1 and E2 expression plasmids of the homologous virus by using Lipofectamine LTXL and Plus Reagent (Invitrogen product, Thermo Fisher Scientific company). […] Meanwhile, the transfected cells were also seeded into duplicated dishes containing the same dilution of test drugs to assess cytotoxicity. All transfected monolayer cells were incubated at 37° C. for 48 hours. The NanoLuc activity expressed by the reporter plasmids was detected with Nano-Glo reagent (Promega company), the cell viability in cytotoxicity plates was measured with CellTiter-Glo reagent (Promega company), and the luminescence intensity was quantified on a microplate reader. The meanings of EC50, CC50, and SI50 were the same as those well-known in the art (where SI50=CC50/EC50), and were not described here.
(§2) J Med Chem. 2016; 59 (23): 10470-8. • Kachaeva, M. et al. In vitro activity of novel 1,3-oxazole derivatives against HPV. Ibnosina J Med Biomed Sci. 2017; 9 (4): 111-8.

[2] = test system: Human Papillomavirus 11 (HPV11); assay: Transient transfection HPV replication assay (E1/E2 plasmids, NanoLuc reporter), HPV11; format: cell-based; conditions: HPV11 strain HE611260.1, C-33 A cells; for pEC50: 48 hours
Protocol: as §1, with “here. […]” for “here.”

[3] = in vitro; conditions: human
Protocol: as §1, §2

[4] = test system: Human Papillomavirus 16 (HPV16); assay: Transient transfection HPV replication assay (E1/E2 plasmids, NanoLuc reporter), HPV16; format: cell-based
Protocol: as §1, §2

[5] = test system: Human Papillomavirus 18 (HPV18); assay: Transient transfection HPV replication assay (E1/E2 plasmids, NanoLuc reporter), HPV18; format: cell-based; conditions: HPV18 strain KC470230.1, C-33 A cells; for pEC50: 48 hours
Protocol: as §1, §2

[6] = Human papillomavirus 16, C-33-A, 48 h
[7] = C-33 A cells transfected with HPV11 (HE611260.1) plasmids, 48 hours
[8] = C-33 A cells transfected with HPV16 (KP212151.1) plasmids, 48 hours
[9] = C-33 A cells transfected with HPV18 (KC470230.1) plasmids, 48 hours

4-methoxy-7-nitroquinolin-8-ol [Example 21]
CC50 [1]: 22.2 µM
pEC50 [2]: < 5.22

CNc1c([N+](=O)[O-])c(O)c2ncccc2c1Cl [Compound 7, 5-chloro-6-(methylamino)-7-nitroquinolin-8-ol]
CC50 at 48 h ([3]; CC50): 19.1 µM
pEC50 ([2]; human papillomavirus 11): 5.28

O=[N+]([O-])c1cc(Cl)c2c(Cl)ccnc2c1O [Compound 29, 4,5-dichloro-7-nitroquinolin-8-ol]
CC50 at 48 h [3]: 8.74 µM
pEC50 ([2]; human papillomavirus 11): 5.53

O=[N+]([O-])c1ccc2c(C3CCCCC3)ccnc2c1O [Compound 32, 4-cyclohexyl-7-nitroquinolin-8-ol]
pEC50 [4, 6]: 7.10
pEC50 ([5]; human papillomavirus 18): > 7.30
pEC50 ([2]; human papillomavirus 11): > 7.30

O=[N+]([O-])c1cc(Cl)c2c(N3CCCCC3)ccnc2c1O [Compound 36, 5-chloro-7-nitro-4-piperidinylquinolin-8-ol]
pEC50 [4, 6]: 6.16
pEC50 ([5]; human papillomavirus 18): 6.57
pEC50 ([2]; human papillomavirus 11): > 7.30

O=[N+]([O-])c1ccc2c(C(F)(F)F)ccnc2c1O [Compound 62, 7-nitro-4-trifluoromethylquinolin-8-ol]
CC50 at 48 h ([3]; CC50): 5.5 µM
pEC50 ([2]; human papillomavirus 11): < 5.92

O=[N+]([O-])c1cc(Cl)c2c(C(F)(F)F)ccnc2c1O [Compound 73, 5-chloro-7-nitro-4-(trifluoromethyl)-quinolin-8-ol hydrochloride]
CC50 at 48 h ([3]; CC50, C-33 A cells transfected with HPV11 (HE611260.1) plasmids, 48 hours): 8.5 µM
CC50 at 48 h ([3]; CC50, C-33 A cells transfected with HPV16 (KP212151.1) plasmids, 48 hours): 8.32 µM
pEC50 [4, 6]: 7.15
pEC50 ([2]; human papillomavirus 11): 7.22

O=[N+]([O-])c1ccc2c(Cl)c(C3CC3)cnc2c1O [Compound 74, 4-chloro-3-cyclopropyl-7-nitroquinolin-8-ol]
CC50 at 48 h ([3]; CC50): 34.4 µM
pEC50 [4, 6]: 6.82
pEC50 ([5]; human papillomavirus 18): > 7.30
pEC50 ([2]; human papillomavirus 11): 6.24

O=[N+]([O-])c1c(Br)c(Cl)c2cccnc2c1O [Compound 114, 6-bromo-5-chloro-7-nitroquinolin-8-ol]
CC50 at 48 h [3]: 30 µM
pEC50 ([2]; human papillomavirus 11): < 5.22

O=[N+]([O-])c1c(Cl)c(Cl)c2cccnc2c1O [Compound 115, 5,6-dichloro-7-nitroquinolin-8-ol]
CC50 at 48 h ([3]; CC50): 112 µM
pEC50 ([2]; human papillomavirus 11): < 4.52

O=[N+]([O-])c1c(Cl)c(F)c2cccnc2c1O [Compound 123, 6-chloro-5-fluoro-7-nitroquinolin-8-ol]
CC50 at 48 h ([3]; CC50): 29.8 µM
pEC50 ([2]; human papillomavirus 11): < 5.22

Cc1ccnc2c(O)c(C#N)cc(Cl)c12 [Compound 131, 4-methyl-5-chloro-7-cyano-8-hydroxyquinoline]
pEC50 [4, 6]: 6.26
pEC50 ([5]; human papillomavirus 18): 6.85
pEC50 ([2]; human papillomavirus 11): 6.28

N#Cc1c(Cl)c(Cl)c2cccnc2c1O [Compound 133, 5,6-dichloro-7-cyano-8-hydroxyquinoline]
CC50 at 48 h ([3]; CC50): 5.59 µM
pEC50 ([2]; human papillomavirus 11): < 5.92

Cc1cc(C#N)c(O)c2ncccc12 [Compound A1]
CC50 at 48 h ([3]; CC50): 20.2 µM
pEC50 ([2]; human papillomavirus 11): < 5.22

O=[N+]([O-])c1ccc(O)c2ncccc12 [Compound A2, 5-nitro-8-hydroxyquinoline, reference compound]
pEC50 ([5]; human papillomavirus 18): 6.00
pEC50 ([2]; human papillomavirus 11): 5.98

O=[N+]([O-])c1ccc2c(NC3COC3)ccnc2c1O [Example 19, 7-nitro-4-(3-oxetanylamino)quinolin-8-ol]
CC50 [1, 7]: 4 µM
pEC50 [2]: 6.28

CN(C)C(=O)N1CCN(c2ccnc3c(O)c([N+](=O)[O-])ccc23)CC1 [Example 25, 4-(8-hydroxy-7-nitroquinolin-4-yl)-N,N-dimethylpiperazine-1-carboxamide]
CC50 [1, 7]: 3.36 µM
CC50 [1, 8]: 7.53 µM
CC50 [1, 9]: 5.88 µM
pEC50 ([4]; HPV16 strain KP212151.1, C-33 A cells, 48 hours, read-out: EC50): 7.05
pEC50 [5]: 7.00
pEC50 [2]: > 7.30

O=[N+]([O-])c1ccc2c(C3CCCCC3)ccnc2c1O [Example 32, 4-cyclohexyl-7-nitroquinolin-8-ol]
CC50 [1]: > 150 µM
pEC50 [2]: 5.40

Nc1nc2c(ncn2CCOCP(=O)(O)O)c(=O)[nH]1 [Positive control drug, 9-[2-(phosphonylmethoxy)ethyl]guanine, reference compound]
CC50 [1, 7]: > 150 µM
CC50 [1, 8]: > 150 µM
CC50 [1, 9]: > 150 µM
EC90 ([4]; HPV16 strain KP212151.1, C-33 A cells): 2.3 µM
EC90 [5]: > 150 µM
EC90 [2]: 4.47 µM
pEC50 [2]: 5.90 and 5.99
